Laboratory results taken from PubChem BioAssay (NCI).
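Interpolation was linear, between the two tested concentrations surrounding the appropriate level; five concentrations were tested over 48 hours in 96-well plates. TGI: total growth inhibition.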

Experiments:
Test in all cases: growth of human tumour cells (NCI), 48 h
786-0 renal = system: 786-0 renal
A498 renal = system: A498 renal
A549 NSCLC = system: A549 NSCLC
ACHN renal = system: ACHN renal
BT-549 breast = system: BT-549 breast
CAKI-1 renal = system: CAKI-1 renal
CCRF-CEM leukemia = system: CCRF-CEM leukemia
COLO 205 colon = system: COLO 205 colon
DU-145 prostate = system: DU-145 prostate
EKVX NSCLC = system: EKVX NSCLC
HCC-2998 colon = system: HCC-2998 colon
HCT-116 colon = system: HCT-116 colon
HCT-15 colon = system: HCT-15 colon
HL-60(TB) leukemia = system: HL-60(TB) leukemia
HOP-62 NSCLC = system: HOP-62 NSCLC
HOP-92 NSCLC = system: HOP-92 NSCLC
HS 578T breast = system: HS 578T breast
HT29 colon = system: HT29 colon
IGROV1 ovarian = system: IGROV1 ovarian
K-562 leukemia = system: K-562 leukemia
M14 melanoma = system: M14 melanoma
MALME-3M melanoma = system: MALME-3M melanoma
MCF7 breast = system: MCF7 breast
MDA-MB-231 breast = system: MDA-MB-231 breast
MDA-MB-435 = system: MDA-MB-435
MDA-N = system: MDA-N
NCI-H226 lung = system: NCI-H226 lung
NCI-H23 lung = system: NCI-H23 lung
NCI-H522 lung = system: NCI-H522 lung
NCI/ADR-RES ovarian = system: NCI/ADR-RES ovarian
OVCAR-3 ovarian = system: OVCAR-3 ovarian
OVCAR-4 ovarian = system: OVCAR-4 ovarian
OVCAR-5 ovarian = system: OVCAR-5 ovarian
OVCAR-8 ovarian = system: OVCAR-8 ovarian
PC-3 prostate = system: PC-3 prostate
RPMI-8226 leukemia = system: RPMI-8226 leukemia
RXF 393 renal = system: RXF 393 renal
SF-268 CNS = system: SF-268 CNS
SF-295 CNS = system: SF-295 CNS
SF-539 CNS = system: SF-539 CNS
SK-MEL-28 melanoma = system: SK-MEL-28 melanoma
SK-MEL-5 melanoma = system: SK-MEL-5 melanoma
SK-OV-3 ovarian = system: SK-OV-3 ovarian
SN12C renal = system: SN12C renal
SNB-19 CNS = system: SNB-19 CNS
SNB-75 CNS = system: SNB-75 CNS
SR leukemia = system: SR leukemia
SW-620 colon = system: SW-620 colon
TK-10 renal = system: TK-10 renal
U251 CNS = system: U251 CNS
UACC-257 melanoma = system: UACC-257 melanoma
UACC-62 melanoma = system: UACC-62 melanoma
UO-31 renal = system: UO-31 renal
KM12 colon = system: KM12 colon
MOLT-4 leukemia = system: MOLT-4 leukemia
NCI-H460 lung = system: NCI-H460 lung
SK-MEL-2 melanoma = system: SK-MEL-2 melanoma
T-47D breast = system: T-47D breast
LOX IMVI melanoma = system: LOX IMVI melanoma

Work on `CCCCCCCCCCCCCC/C(=C/OCC[N+](C)(C)C)OC(C)=O` (tested in a mixture with another compound) yielded a TGI (786-0 renal) of 2.34 µM, a TGI (A498 renal) of 6.99 µM and a TGI (A549 NSCLC) of 6.87 µM. For the same compound, the TGI (ACHN renal) was 14 µM, the TGI (BT-549 breast) was 5.85 µM and the TGI (CAKI-1 renal) was 4.04 µM. The TGI (CCRF-CEM leukemia) was 3.67 µM, the TGI (COLO 205 colon) was 5.08 µM and the TGI (DU-145 prostate) was 17.1 µM. For the same compound, the TGI (EKVX NSCLC) was 10.7 µM, the TGI (HCC-2998 colon) was 13.4 µM and the TGI (HCT-116 colon) was 11.2 µM. The TGI (HCT-15 colon) was 19.5 µM, the TGI (HL-60(TB) leukemia) was 3.27 µM and the TGI (HOP-62 NSCLC) was 5.8 µM. For the same compound, the TGI (HOP-92 NSCLC) was 3.75 µM, the TGI (HS 578T breast) was 5.26 µM and the TGI (HT29 colon) was 1.82 µM. The TGI (IGROV1 ovarian) was 3.96 µM, the TGI (K-562 leukemia) was 13.3 µM and the TGI (M14 melanoma) was 7.12 µM. For the same compound, the TGI (MALME-3M melanoma) was 21.2 µM, the TGI (MCF7 breast) was 10.3 µM and the TGI (MDA-MB-231 breast) was 4.83 µM. The TGI (MDA-MB-435) was 7.49 µM, the TGI (MDA-N) was 10 µM and the TGI (NCI-H226 lung) was 14.7 µM. The TGI (NCI-H23 lung) was 7.65 µM, the TGI (NCI-H522 lung) was 5.07 µM and the TGI (NCI/ADR-RES ovarian) was 44.2 µM. For the same compound, the TGI (OVCAR-3 ovarian) was 8.21 µM, the TGI (OVCAR-4 ovarian) was 7.7 µM and the TGI (OVCAR-5 ovarian) was 13.2 µM. For the same compound, the TGI (OVCAR-8 ovarian) was 4.15 µM, the TGI (PC-3 prostate) was 5.27 µM and the TGI (RPMI-8226 leukemia) was 4.16 µM. It also gave a TGI (RXF 393 renal) of 2.45 µM, a TGI (SF-268 CNS) of 5.09 µM and a TGI (SF-295 CNS) of 5.34 µM. For the same compound, the TGI (SF-539 CNS) was 5.88 µM, the TGI (SK-MEL-28 melanoma) was 20.4 µM and the TGI (SK-MEL-5 melanoma) was 4.92 µM. It also gave a TGI (SK-OV-3 ovarian) of 17.1 µM, a TGI (SN12C renal) of 12.5 µM and a TGI (SNB-19 CNS) of 3.35 µM. It also gave a TGI (SNB-75 CNS) of 7.3 µM, a TGI (SR leukemia) of 4.57 µM and a TGI (SW-620 colon) of 17.5 µM. For the same compound, the TGI (TK-10 renal) was 3.76 µM, the TGI (U251 CNS) was 2.71 µM and the TGI (UACC-257 melanoma) was 8.91 µM. The TGI (UACC-62 melanoma) was 5.25 µM and the TGI (UO-31 renal) was 30 µM.

Work on `N#CC1(C#N)C(c2ccccc2)NC23CCCCC2C1(C#N)C(=O)N3` (stereo unspecified) yielded a TGI (786-0 renal) greater than 100 µM, a TGI (A498 renal) greater than 100 µM and a TGI (A549 NSCLC) greater than 100 µM. It also gave a TGI (ACHN renal) greater than 100 µM, a TGI (BT-549 breast) greater than 100 µM and a TGI (CAKI-1 renal) greater than 100 µM. It also gave a TGI (CCRF-CEM leukemia) greater than 100 µM, a TGI (COLO 205 colon) greater than 100 µM and a TGI (DU-145 prostate) greater than 100 µM. The TGI (EKVX NSCLC) was greater than 100 µM, the TGI (HCC-2998 colon) was greater than 100 µM and the TGI (HCT-116 colon) was greater than 100 µM. The TGI (HCT-15 colon) was greater than 100 µM, the TGI (HOP-62 NSCLC) was greater than 100 µM and the TGI (HOP-92 NSCLC) was greater than 100 µM. The TGI (HT29 colon) was greater than 100 µM, the TGI (IGROV1 ovarian) was greater than 100 µM and the TGI (K-562 leukemia) was greater than 100 µM. It also gave a TGI (KM12 colon) greater than 100 µM, a TGI (M14 melanoma) greater than 100 µM and a TGI (MALME-3M melanoma) greater than 100 µM. For the same compound, the TGI (MCF7 breast) was greater than 100 µM, the TGI (MDA-MB-231 breast) was greater than 100 µM and the TGI (MDA-MB-435) was greater than 100 µM. It also gave a TGI (MDA-N) greater than 100 µM, a TGI (MOLT-4 leukemia) greater than 100 µM and a TGI (NCI-H226 lung) greater than 100 µM. For the same compound, the TGI (NCI-H23 lung) was greater than 100 µM, the TGI (NCI-H460 lung) was greater than 100 µM and the TGI (NCI-H522 lung) was greater than 100 µM. The TGI (NCI/ADR-RES ovarian) was greater than 100 µM, the TGI (OVCAR-3 ovarian) was greater than 100 µM and the TGI (OVCAR-4 ovarian) was greater than 100 µM. For the same compound, the TGI (OVCAR-5 ovarian) was greater than 100 µM, the TGI (OVCAR-8 ovarian) was greater than 100 µM and the TGI (PC-3 prostate) was greater than 100 µM. It also gave a TGI (RPMI-8226 leukemia) greater than 100 µM, a TGI (RXF 393 renal) greater than 100 µM and a TGI (SF-268 CNS) greater than 100 µM. The TGI (SF-295 CNS) was greater than 100 µM, the TGI (SF-539 CNS) was greater than 100 µM and the TGI (SK-MEL-2 melanoma) was greater than 100 µM. It also gave a TGI (SK-MEL-28 melanoma) greater than 100 µM, a TGI (SK-OV-3 ovarian) greater than 100 µM and a TGI (SN12C renal) greater than 100 µM. It also gave a TGI (SNB-19 CNS) greater than 100 µM, a TGI (SNB-75 CNS) greater than 100 µM and a TGI (SR leukemia) greater than 100 µM. It also gave a TGI (SW-620 colon) greater than 100 µM, a TGI (T-47D breast) greater than 100 µM and a TGI (U251 CNS) greater than 100 µM. The TGI (UACC-257 melanoma) was greater than 100 µM, the TGI (UACC-62 melanoma) was greater than 100 µM and the TGI (UO-31 renal) was greater than 100 µM.

`CN(C)CCCNC(=O)c1cc(NC(=O)CCCn2c3ccccc3c3ccccc32)cn1C` showed a TGI (786-0 renal) greater than 100 µM, a TGI (A498 renal) of 71.3 µM and a TGI (A549 NSCLC) greater than 100 µM. For the same compound, the TGI (ACHN renal) was greater than 100 µM, the TGI (BT-549 breast) was greater than 100 µM and the TGI (CAKI-1 renal) was greater than 100 µM. It also gave a TGI (CCRF-CEM leukemia) greater than 100 µM, a TGI (COLO 205 colon) of 59.8 µM and a TGI (DU-145 prostate) greater than 100 µM. For the same compound, the TGI (EKVX NSCLC) was 92 µM, the TGI (HCT-116 colon) was greater than 100 µM and the TGI (HCT-15 colon) was greater than 100 µM. The TGI (HL-60(TB) leukemia) was greater than 100 µM, the TGI (HOP-62 NSCLC) was greater than 100 µM and the TGI (HOP-92 NSCLC) was 9.32 µM. For the same compound, the TGI (HT29 colon) was greater than 100 µM, the TGI (IGROV1 ovarian) was 33.9 µM and the TGI (K-562 leukemia) was greater than 100 µM. For the same compound, the TGI (KM12 colon) was greater than 100 µM, the TGI (LOX IMVI melanoma) was greater than 100 µM and the TGI (M14 melanoma) was greater than 100 µM. The TGI (MALME-3M melanoma) was 61.7 µM, the TGI (MCF7 breast) was greater than 100 µM and the TGI (MDA-MB-231 breast) was greater than 100 µM. It also gave a TGI (MDA-MB-435) greater than 100 µM, a TGI (MDA-N) greater than 100 µM and a TGI (MOLT-4 leukemia) greater than 100 µM. For the same compound, the TGI (NCI-H226 lung) was greater than 100 µM, the TGI (NCI-H23 lung) was greater than 100 µM and the TGI (NCI-H460 lung) was greater than 100 µM. For the same compound, the TGI (NCI/ADR-RES ovarian) was greater than 100 µM, the TGI (OVCAR-3 ovarian) was greater than 100 µM and the TGI (OVCAR-4 ovarian) was greater than 100 µM. For the same compound, the TGI (OVCAR-5 ovarian) was greater than 100 µM, the TGI (OVCAR-8 ovarian) was greater than 100 µM and the TGI (PC-3 prostate) was greater than 100 µM. The TGI (RPMI-8226 leukemia) was greater than 100 µM, the TGI (RXF 393 renal) was greater than 100 µM and the TGI (SF-268 CNS) was greater than 100 µM. The TGI (SF-295 CNS) was greater than 100 µM, the TGI (SF-539 CNS) was greater than 100 µM and the TGI (SK-MEL-2 melanoma) was greater than 100 µM. It also gave a TGI (SK-MEL-28 melanoma) greater than 100 µM, a TGI (SK-MEL-5 melanoma) greater than 100 µM and a TGI (SK-OV-3 ovarian) greater than 100 µM. It also gave a TGI (SN12C renal) greater than 100 µM, a TGI (SNB-19 CNS) greater than 100 µM and a TGI (SNB-75 CNS) greater than 100 µM. It also gave a TGI (SW-620 colon) greater than 100 µM, a TGI (T-47D breast) of 75.2 µM and a TGI (TK-10 renal) of 82 µM. It also gave a TGI (U251 CNS) greater than 100 µM, a TGI (UACC-62 melanoma) greater than 100 µM and a TGI (UO-31 renal) greater than 100 µM.
